Assay results taken from the NIST ThermoML archive (doi:10.1016/j.jct.2012.03.015).
Numbers after ± are expanded uncertainties.

Experiment: activity coefficient (dimensionless); of the first substance listed, at infinite dilution; xn = mol fraction of the nth substance listed
Details: 101 kPa, Liquid, Chromatography, x1 = 0

SMILES | activity coefficient (318.15 K) | activity coefficient (328.15 K) | activity coefficient (338.15 K) | activity coefficient (348.15 K) | activity coefficient (358.15 K) | activity coefficient (368.15 K)
CCOC(C)(C)C [2-ethoxy-2-methylpropane] + COCC[N+]1(C)CCCC1.O=S(=O)([N-]S(=O)(=O)C(F)(F)F)C(F)(F)F | 6.31 ± 0.43 | 6.19 ± 0.42 | 6.12 ± 0.42 | 6.03 ± 0.41 | 5.94 ± 0.4 | 5.85 ± 0.4
CCC(C)(C)OC [2-methoxy-2-methylbutane] + COCC[N+]1(C)CCCC1.O=S(=O)([N-]S(=O)(=O)C(F)(F)F)C(F)(F)F | 4.08 ± 0.28 | 4.06 ± 0.28 | 4.05 ± 0.28 | 4.03 ± 0.27 | 4.01 ± 0.27 | 4 ± 0.27
COC(C)(C)C [2-methoxy-2-methylpropane] + COCC[N+]1(C)CCCC1.O=S(=O)([N-]S(=O)(=O)C(F)(F)F)C(F)(F)F | 2.76 ± 0.19 | 2.79 ± 0.19 | 2.81 ± 0.19 | 2.84 ± 0.19 | 2.86 ± 0.19 | 2.89 ± 0.2
CC(C)CO [2-methyl-1-propanol] + COCC[N+]1(C)CCCC1.O=S(=O)([N-]S(=O)(=O)C(F)(F)F)C(F)(F)F | 2.76 ± 0.19 | 2.46 ± 0.17 | 2.2 ± 0.15 | 2.01 ± 0.14 | 1.84 ± 0.12 | 1.7 ± 0.11
CC(C)(C)O [2-methylpropan-2-ol] + COCC[N+]1(C)CCCC1.O=S(=O)([N-]S(=O)(=O)C(F)(F)F)C(F)(F)F | 1.92 ± 0.13 | 1.79 ± 0.12 | 1.67 ± 0.11 | 1.56 ± 0.1 | 1.48 ± 0.1 | 1.4 ± 0.09
CCC(C)CC [3-methylpentane] + COCC[N+]1(C)CCCC1.O=S(=O)([N-]S(=O)(=O)C(F)(F)F)C(F)(F)F | 16.6 ± 1.1 | 15.6 ± 1.1 | 14.8 ± 1 | 14.1 ± 1 | 13.5 ± 0.9 | 12.8 ± 0.9
C=C(C)c1ccccc1 [(1-methylethenyl)benzene] + COCC[N+]1(C)CCCC1.O=S(=O)([N-]S(=O)(=O)C(F)(F)F)C(F)(F)F | 1.87 ± 0.13 | 1.93 ± 0.13 | 1.98 ± 0.13 | 2.03 ± 0.14 | 2.08 ± 0.14 | 2.12 ± 0.14
CC(C)=O [acetone] + COCC[N+]1(C)CCCC1.O=S(=O)([N-]S(=O)(=O)C(F)(F)F)C(F)(F)F | 0.47 ± 0.04 | 0.48 ± 0.04 | 0.49 ± 0.04 | 0.5 ± 0.04 | 0.51 ± 0.04 | 0.52 ± 0.04
CC#N [acetonitrile] + COCC[N+]1(C)CCCC1.O=S(=O)([N-]S(=O)(=O)C(F)(F)F)C(F)(F)F | 0.467 ± 0.036 | 0.469 ± 0.037 | 0.472 ± 0.037 | 0.474 ± 0.037 | 0.477 ± 0.037 | 0.479 ± 0.037
c1ccccc1 [benzene] + COCC[N+]1(C)CCCC1.O=S(=O)([N-]S(=O)(=O)C(F)(F)F)C(F)(F)F | 1.03 ± 0.06 | 1.04 ± 0.07 | 1.06 ± 0.07 | 1.07 ± 0.07 | 1.08 ± 0.07 | 1.09 ± 0.07
CCCCO [butan-1-ol] + COCC[N+]1(C)CCCC1.O=S(=O)([N-]S(=O)(=O)C(F)(F)F)C(F)(F)F | 2.87 ± 0.2 | 2.6 ± 0.2 | 2.35 ± 0.16 | 2.16 ± 0.15 | 1.98 ± 0.13 | 1.84 ± 0.12
CCC(C)O (stereo unspecified) [butan-2-ol] + COCC[N+]1(C)CCCC1.O=S(=O)([N-]S(=O)(=O)C(F)(F)F)C(F)(F)F | 2.4 ± 0.2 | 2.19 ± 0.15 | 2 ± 0.14 | 1.85 ± 0.12 | 1.72 ± 0.12 | 1.61 ± 0.11
CCCC=O [butanal] + COCC[N+]1(C)CCCC1.O=S(=O)([N-]S(=O)(=O)C(F)(F)F)C(F)(F)F | 0.808 ± 0.052 | 0.823 ± 0.053 | 0.838 ± 0.054 | 0.851 ± 0.055 | 0.864 ± 0.055 | 0.876 ± 0.056
C1CCCCCC1 [cycloheptane] + COCC[N+]1(C)CCCC1.O=S(=O)([N-]S(=O)(=O)C(F)(F)F)C(F)(F)F | 15.3 ± 1 | 14.1 ± 1 | 13.1 ± 0.9 | 12.3 ± 0.8 | 11.5 ± 0.8 | 10.8 ± 0.7
C1CCCCC1 [cyclohexane] + COCC[N+]1(C)CCCC1.O=S(=O)([N-]S(=O)(=O)C(F)(F)F)C(F)(F)F | 11.1 ± 0.8 | 10.4 ± 0.7 | 9.69 ± 0.66 | 9.22 ± 0.63 | 8.65 ± 0.59 | 8.23 ± 0.56
C1=CCCCC1 [cyclohexene] + COCC[N+]1(C)CCCC1.O=S(=O)([N-]S(=O)(=O)C(F)(F)F)C(F)(F)F | 6.04 ± 0.41 | 5.82 ± 0.4 | 5.63 ± 0.38 | 5.44 ± 0.37 | 5.27 ± 0.36 | 5.1 ± 0.35

SMILES | activity coefficient (318.15 K) | activity coefficient (328.15 K) | activity coefficient (338.15 K) | activity coefficient (348.15 K) | activity coefficient (358.15 K) | activity coefficient (368.15 K)
C1CCCCCCC1 [cyclooctane] + COCC[N+]1(C)CCCC1.O=S(=O)([N-]S(=O)(=O)C(F)(F)F)C(F)(F)F | 20.7 ± 1.4 | 19 ± 1.3 | 17.4 ± 1.2 | 16.2 ± 1.1 | 15 ± 1 | 14 ± 1
C1CCCC1 [cyclopentane] + COCC[N+]1(C)CCCC1.O=S(=O)([N-]S(=O)(=O)C(F)(F)F)C(F)(F)F | 7.52 ± 0.51 | 7.19 ± 0.49 | 6.85 ± 0.47 | 6.54 ± 0.45 | 6.26 ± 0.43 | 5.98 ± 0.41
CCCCCCCCCC [decane] + COCC[N+]1(C)CCCC1.O=S(=O)([N-]S(=O)(=O)C(F)(F)F)C(F)(F)F | 83.1 ± 5.7 | 75.5 ± 5.2 | 68.1 ± 4.7 | 61.8 ± 4.2 | 56.1 ± 3.8 | 51.3 ± 3.5
CCOCC [diethyl ether] + COCC[N+]1(C)CCCC1.O=S(=O)([N-]S(=O)(=O)C(F)(F)F)C(F)(F)F | 2.79 ± 0.19 | 2.79 ± 0.19 | 2.78 ± 0.19 | 2.78 ± 0.19 | 2.78 ± 0.19 | 2.78 ± 0.19
CC(C)OC(C)C [diisopropyl ether] + COCC[N+]1(C)CCCC1.O=S(=O)([N-]S(=O)(=O)C(F)(F)F)C(F)(F)F | 6.63 ± 0.45 | 6.55 ± 0.45 | 6.46 ± 0.44 | 6.39 ± 0.44 | 6.31 ± 0.43 | 6.23 ± 0.42
CCCOCCC [dipropyl ether] + COCC[N+]1(C)CCCC1.O=S(=O)([N-]S(=O)(=O)C(F)(F)F)C(F)(F)F | 7.22 ± 0.49 | 7.03 ± 0.48 | 6.82 ± 0.46 | 6.64 ± 0.45 | 6.47 ± 0.44 | 6.32 ± 0.43
CCO [ethanol] + COCC[N+]1(C)CCCC1.O=S(=O)([N-]S(=O)(=O)C(F)(F)F)C(F)(F)F | 1.77 ± 0.12 | 1.63 ± 0.11 | 1.48 ± 0.1 | 1.38 ± 0.09 | 1.28 ± 0.08 | 1.2 ± 0.08
CCOC(C)=O [ethyl acetate] + COCC[N+]1(C)CCCC1.O=S(=O)([N-]S(=O)(=O)C(F)(F)F)C(F)(F)F | 0.95 ± 0.06 | 0.97 ± 0.06 | 0.98 ± 0.06 | 1 ± 0.06 | 1.02 ± 0.06 | 1.03 ± 0.06
CCc1ccccc1 [ethylbenzene] + COCC[N+]1(C)CCCC1.O=S(=O)([N-]S(=O)(=O)C(F)(F)F)C(F)(F)F | 2.23 ± 0.15 | 2.24 ± 0.15 | 2.24 ± 0.15 | 2.25 ± 0.15 | 2.25 ± 0.15 | 2.26 ± 0.15
CCCCCCC [heptane] + COCC[N+]1(C)CCCC1.O=S(=O)([N-]S(=O)(=O)C(F)(F)F)C(F)(F)F | 28 ± 1.9 | 25.9 ± 1.8 | 24.2 ± 1.7 | 22.6 ± 1.5 | 21.1 ± 1.4 | 19.7 ± 1.3
C=CCCCC [hex-1-ene] + COCC[N+]1(C)CCCC1.O=S(=O)([N-]S(=O)(=O)C(F)(F)F)C(F)(F)F | 9.74 ± 0.66 | 9.34 ± 0.64 | 8.92 ± 0.61 | 8.61 ± 0.59 | 8.24 ± 0.56 | 7.96 ± 0.54
CCCCCC [hexane] + COCC[N+]1(C)CCCC1.O=S(=O)([N-]S(=O)(=O)C(F)(F)F)C(F)(F)F | 19 ± 1.3 | 17.8 ± 1.2 | 16.7 ± 1.1 | 15.9 ± 1.1 | 15 ± 1 | 14.3 ± 1
CO [methanol] + COCC[N+]1(C)CCCC1.O=S(=O)([N-]S(=O)(=O)C(F)(F)F)C(F)(F)F | 1.37 ± 0.09 | 1.27 ± 0.08 | 1.18 ± 0.08 | 1.1 ± 0.07 | 1.03 ± 0.06 | 0.972 ± 0.061
CCCC(=O)OC [methyl butanoate] + COCC[N+]1(C)CCCC1.O=S(=O)([N-]S(=O)(=O)C(F)(F)F)C(F)(F)F | 1.29 ± 0.08 | 1.31 ± 0.09 | 1.33 ± 0.09 | 1.35 ± 0.09 | 1.36 ± 0.09 | 1.38 ± 0.09
COC(C)=O [methyl ethanoate] + COCC[N+]1(C)CCCC1.O=S(=O)([N-]S(=O)(=O)C(F)(F)F)C(F)(F)F | 0.71 ± 0.05 | 0.73 ± 0.05 | 0.74 ± 0.05 | 0.76 ± 0.05 | 0.77 ± 0.05 | 0.78 ± 0.05
